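Each compound was tested at five concentrations against cells in 96-well plates for 48 hours. At the GI50, growth is halved. TGI: concentration producing complete growth inhibition.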
What was measured:
Assay in all cases: inhibition of tumour cell growth, NCI panel, 48 h
HOP-62 NSCLC = tested on: HOP-62 NSCLC
U251 CNS = tested on: U251 CNS
HCT-116 colon = tested on: HCT-116 colon
RPMI-8226 leukemia = tested on: RPMI-8226 leukemia
SF-539 CNS = tested on: SF-539 CNS
ACHN renal = tested on: ACHN renal
SK-OV-3 ovarian = tested on: SK-OV-3 ovarian
NCI-H23 lung = tested on: NCI-H23 lung
BT-549 breast = tested on: BT-549 breast
SR leukemia = tested on: SR leukemia

COc1ccc([C@@H]2OC(=O)C3C2C(=O)O[C@H]3c2ccc(OC)c(OC)c2)cc1OC (some centres not stated)
TGI (HOP-62 NSCLC): > 100 µM
TGI (U251 CNS): > 100 µM
TGI (HCT-116 colon): > 100 µM
TGI (RPMI-8226 leukemia): > 100 µM
TGI (SF-539 CNS): > 100 µM
TGI (ACHN renal): > 100 µM
TGI (SK-OV-3 ovarian): > 100 µM
TGI (NCI-H23 lung): > 100 µM

CCC[CH2][Sn]1([CH2]CCC)[S]CC[N]1S(=O)(=O)c1ccc(C)cc1
GI50 (HOP-62 NSCLC): 2.22 µM
TGI (HOP-62 NSCLC): 3.83 µM
GI50 (U251 CNS): 0.885 µM
TGI (U251 CNS): 2.1 µM
GI50 (HCT-116 colon): 1.42 µM
TGI (HCT-116 colon): 2.81 µM
GI50 (RPMI-8226 leukemia): 0.386 µM
TGI (RPMI-8226 leukemia): 2.01 µM
GI50 (SF-539 CNS): 1.36 µM
TGI (SF-539 CNS): 2.68 µM
GI50 (ACHN renal): 1.67 µM
TGI (ACHN renal): 3.11 µM
GI50 (NCI-H23 lung): 0.638 µM
TGI (NCI-H23 lung): 1.94 µM

CC[PH+](CC)CC.[Cl][Au]
GI50 (HOP-62 NSCLC): 19.4 µM
TGI (HOP-62 NSCLC): 33.7 µM
GI50 (U251 CNS): 1.95 µM
TGI (U251 CNS): 5.14 µM
GI50 (HCT-116 colon): 1.84 µM
TGI (HCT-116 colon): 3.59 µM
GI50 (RPMI-8226 leukemia): 1.03 µM
TGI (RPMI-8226 leukemia): 3.84 µM
GI50 (SF-539 CNS): 2.35 µM
TGI (SF-539 CNS): 7.36 µM
GI50 (ACHN renal): 1.61 µM
TGI (ACHN renal): 3.32 µM
GI50 (SK-OV-3 ovarian): 16.4 µM
TGI (SK-OV-3 ovarian): 30 µM
GI50 (NCI-H23 lung): 1.68 µM
TGI (NCI-H23 lung): 3.42 µM

C=C(C)[C@@H]1CC[C@]2(C(=O)NS(=O)(=O)c3ccccc3)CC[C@]3(C)[C@H](CC[C@@H]4[C@@]5(C)CC[C@H](OC(=O)NS(=O)(=O)c6ccccc6)C(C)(C)[C@@H]5CC[C@]43C)[C@@H]12
GI50 (HOP-62 NSCLC): 2.33 µM
TGI (HOP-62 NSCLC): 6.83 µM
GI50 (U251 CNS): 1.46 µM
TGI (U251 CNS): 5.96 µM
GI50 (BT-549 breast): 1.79 µM
TGI (BT-549 breast): 6.31 µM
GI50 (HCT-116 colon): 1.47 µM
TGI (HCT-116 colon): 3.56 µM
GI50 (RPMI-8226 leukemia): 1.37 µM
TGI (RPMI-8226 leukemia): 6.18 µM
GI50 (SF-539 CNS): 1.27 µM
TGI (SF-539 CNS): 2.59 µM
GI50 (ACHN renal): 2.73 µM
TGI (ACHN renal): 9 µM
GI50 (SK-OV-3 ovarian): 2.6 µM
TGI (SK-OV-3 ovarian): 8.22 µM
GI50 (NCI-H23 lung): 2.41 µM
TGI (NCI-H23 lung): 8.51 µM

C=C1C(OC(C)=O)CC(OC(C)=O)C2(C)C(OC(C)=O)C(OC(C)=O)C3=C(C)C(OC(=O)/C=C/c4ccccc4)CC(C(OC(C)=O)C12)C3(C)C (configuration not stated)
TGI (SR leukemia): > 100 µM
TGI (HOP-62 NSCLC): > 100 µM
TGI (U251 CNS): > 100 µM
TGI (HCT-116 colon): > 100 µM
TGI (RPMI-8226 leukemia): > 100 µM
TGI (SF-539 CNS): > 100 µM
TGI (ACHN renal): > 100 µM
TGI (SK-OV-3 ovarian): > 100 µM

C=C1C[C@@H]2C[C@@H](C)CC(O)[C@]2(CCCN)C1O (some centres not stated)
TGI (SR leukemia): > 100 µM
TGI (HOP-62 NSCLC): > 100 µM
TGI (U251 CNS): > 100 µM
TGI (HCT-116 colon): > 100 µM
TGI (RPMI-8226 leukemia): > 100 µM
TGI (SF-539 CNS): > 100 µM
TGI (ACHN renal): > 100 µM
TGI (SK-OV-3 ovarian): > 100 µM
TGI (NCI-H23 lung): > 100 µM

O=C([O-])CC(=O)[O-].[NH-][C@@H]1CCCC[C@H]1[NH-].[Pt+4]
GI50 (HOP-62 NSCLC): > 27.1 µM
TGI (HOP-62 NSCLC): > 100 µM
GI50 (U251 CNS): 17.4 µM
TGI (U251 CNS): > 83.3 µM
GI50 (BT-549 breast): 32.8 µM
TGI (BT-549 breast): > 100 µM
GI50 (HCT-116 colon): 4.84 µM
TGI (HCT-116 colon): > 100 µM
GI50 (RPMI-8226 leukemia): 1.05 µM
TGI (RPMI-8226 leukemia): > 100 µM
GI50 (SF-539 CNS): 46.8 µM
TGI (SF-539 CNS): > 100 µM
GI50 (ACHN renal): > 35.9 µM
TGI (ACHN renal): > 100 µM
GI50 (SK-OV-3 ovarian): > 100 µM
TGI (SK-OV-3 ovarian): > 100 µM
GI50 (NCI-H23 lung): 16.9 µM
TGI (NCI-H23 lung): > 97.3 µM

N#Cc1cc(S(=O)(=O)Nc2nc3ccccc3o2)c(SCc2ccccc2)cc1Cl
GI50 (SR leukemia): 76.5 µM
TGI (SR leukemia): > 100 µM
GI50 (HOP-62 NSCLC): 21.4 µM
TGI (HOP-62 NSCLC): 43.6 µM
GI50 (U251 CNS): 18.9 µM
TGI (U251 CNS): 34 µM
GI50 (BT-549 breast): 20.5 µM
TGI (BT-549 breast): 41.3 µM
GI50 (HCT-116 colon): 17.8 µM
TGI (HCT-116 colon): 38.6 µM
GI50 (RPMI-8226 leukemia): 30.9 µM
TGI (RPMI-8226 leukemia): > 100 µM
GI50 (SF-539 CNS): 17.9 µM
TGI (SF-539 CNS): 33.3 µM
GI50 (ACHN renal): 32.6 µM
TGI (ACHN renal): > 100 µM
GI50 (NCI-H23 lung): 26.1 µM
TGI (NCI-H23 lung): 54.3 µM

CO[C@@]1(c2ccccc2)O[C@H]2OCCC2[C@H]1c1ccc(Cl)cc1 (some centres not stated)
TGI (SR leukemia): > 100 µM
TGI (HOP-62 NSCLC): > 100 µM
TGI (U251 CNS): 94 µM
TGI (HCT-116 colon): > 100 µM
TGI (RPMI-8226 leukemia): > 100 µM
TGI (SF-539 CNS): > 100 µM
TGI (ACHN renal): > 100 µM
TGI (NCI-H23 lung): 81.6 µM

COc1ccc2c(c1)CN1CCc3c(cc(OC)c(OC)c3OC)C1C2 (configuration not stated)
TGI (SR leukemia): > 100 µM
TGI (HOP-62 NSCLC): > 100 µM
TGI (U251 CNS): > 100 µM
TGI (HCT-116 colon): > 100 µM
TGI (RPMI-8226 leukemia): > 100 µM
TGI (SF-539 CNS): > 100 µM
TGI (ACHN renal): > 100 µM
TGI (SK-OV-3 ovarian): > 100 µM
TGI (NCI-H23 lung): > 100 µM

O=C1NC(c2ccccc2)C2(C(=O)O)CN(C3CC3)c3cc(N4CCNCC4)c(F)cc3C2N1 (configuration not stated)
GI50 (HOP-62 NSCLC): > 100 µM
TGI (HOP-62 NSCLC): > 100 µM
GI50 (U251 CNS): > 100 µM
TGI (U251 CNS): > 100 µM
GI50 (BT-549 breast): > 100 µM
TGI (BT-549 breast): > 100 µM
GI50 (HCT-116 colon): > 100 µM
TGI (HCT-116 colon): > 100 µM
GI50 (RPMI-8226 leukemia): > 100 µM
TGI (RPMI-8226 leukemia): > 100 µM
GI50 (SF-539 CNS): > 100 µM
TGI (SF-539 CNS): > 100 µM
GI50 (ACHN renal): > 100 µM
TGI (ACHN renal): > 100 µM
GI50 (SK-OV-3 ovarian): > 100 µM
TGI (SK-OV-3 ovarian): > 100 µM
GI50 (NCI-H23 lung): > 100 µM
TGI (NCI-H23 lung): > 100 µM

CCn1c(-c2nonc2N)nc2c(N3CCCC3)nccc21
GI50 (HOP-62 NSCLC): 12.3 µM
TGI (HOP-62 NSCLC): > 25 µM
GI50 (U251 CNS): 9.43 µM
TGI (U251 CNS): > 25 µM
GI50 (BT-549 breast): > 21.8 µM
TGI (BT-549 breast): > 25 µM
GI50 (HCT-116 colon): 8.47 µM
TGI (HCT-116 colon): > 25 µM
GI50 (RPMI-8226 leukemia): 16.5 µM
TGI (RPMI-8226 leukemia): > 25 µM
GI50 (SF-539 CNS): 10.8 µM
TGI (SF-539 CNS): > 25 µM
GI50 (ACHN renal): 9.73 µM
TGI (ACHN renal): > 25 µM
GI50 (SK-OV-3 ovarian): > 24 µM
TGI (SK-OV-3 ovarian): > 25 µM
GI50 (NCI-H23 lung): 14.9 µM
TGI (NCI-H23 lung): > 25 µM

COc1ccc(-c2cc(=O)c3c(O)c(OC)c(OC)c(OC)c3o2)cc1
TGI (HOP-62 NSCLC): > 100 µM
TGI (U251 CNS): > 100 µM
TGI (BT-549 breast): > 100 µM
TGI (HCT-116 colon): > 100 µM
TGI (RPMI-8226 leukemia): > 100 µM
TGI (SF-539 CNS): > 100 µM
TGI (ACHN renal): > 100 µM
TGI (SK-OV-3 ovarian): > 100 µM
TGI (NCI-H23 lung): > 74.7 µM

COc1cc(/C=N/N=C(\N)NO)c([N+](=O)[O-])cc1OC
TGI (SR leukemia): > 100 µM
TGI (HOP-62 NSCLC): > 100 µM
TGI (U251 CNS): > 100 µM
TGI (HCT-116 colon): 75.1 µM
TGI (RPMI-8226 leukemia): > 100 µM
TGI (SF-539 CNS): > 100 µM
TGI (ACHN renal): 86.5 µM
TGI (SK-OV-3 ovarian): > 100 µM
TGI (NCI-H23 lung): 99.4 µM

COC(C)C(O)(C(=O)OCC1=CCN2CCC(O)C12)C(C)(C)O (configuration not stated)
TGI (U251 CNS): > 100 µM
TGI (BT-549 breast): > 100 µM
TGI (HCT-116 colon): > 100 µM
TGI (RPMI-8226 leukemia): > 100 µM
TGI (SF-539 CNS): > 100 µM
TGI (ACHN renal): > 100 µM
TGI (SK-OV-3 ovarian): > 100 µM
TGI (NCI-H23 lung): > 100 µM

CC1=CCCC2C(C=O)(C1)CC(C)C2(CO)CC/C(=C/CO)CO (configuration not stated)
TGI (U251 CNS): > 100 µM
TGI (HCT-116 colon): > 100 µM
TGI (RPMI-8226 leukemia): > 100 µM
TGI (ACHN renal): > 100 µM
TGI (SK-OV-3 ovarian): > 100 µM
TGI (NCI-H23 lung): > 100 µM

CC(=O)[O-].N.N.N.N.[Co+3].[O-][Cl+3]([O-])([O-])[O-].[OH3+]
GI50 (HOP-62 NSCLC): > 100 µM
TGI (HOP-62 NSCLC): > 100 µM
GI50 (U251 CNS): > 100 µM
TGI (U251 CNS): > 100 µM
GI50 (HCT-116 colon): > 100 µM
TGI (HCT-116 colon): > 100 µM
GI50 (RPMI-8226 leukemia): > 100 µM
TGI (RPMI-8226 leukemia): > 100 µM
GI50 (ACHN renal): > 100 µM
TGI (ACHN renal): > 100 µM
GI50 (SK-OV-3 ovarian): > 100 µM
TGI (SK-OV-3 ovarian): > 100 µM
GI50 (NCI-H23 lung): > 100 µM
TGI (NCI-H23 lung): > 100 µM

CCOC(=O)/C=C/c1cccc(F)c1
TGI (SR leukemia): > 100 µM
TGI (HOP-62 NSCLC): > 100 µM
TGI (U251 CNS): > 100 µM
TGI (BT-549 breast): > 100 µM
TGI (HCT-116 colon): > 100 µM
TGI (RPMI-8226 leukemia): > 100 µM
TGI (SF-539 CNS): > 100 µM
TGI (ACHN renal): > 100 µM
TGI (NCI-H23 lung): > 100 µM

From PubChem BioAssay (NCI)
